Like-named read-outs stand apart in the source and are kept apart here. Marks after values point to notes of the source that are not given here. One block for each compound: values may come before it.
Legend:
[1] = […] NaCl water solution; *values from literature; cited from earlier work
bovine serum albumin [2] = target: T1, bovine serum albumin (Bos taurus, UniProt P02769); settings: cited from earlier work
[3] = pH 1
hFXR = target: T2, hFXR (Homo sapiens, UniProt Q96RI1); experiment: Alphascreen coactivator recruitment assay on FXR; settings: Table 6; coactivator recruitment (Alphascreen)
T2 sequence (Q96RI1 262-486 limits assumed): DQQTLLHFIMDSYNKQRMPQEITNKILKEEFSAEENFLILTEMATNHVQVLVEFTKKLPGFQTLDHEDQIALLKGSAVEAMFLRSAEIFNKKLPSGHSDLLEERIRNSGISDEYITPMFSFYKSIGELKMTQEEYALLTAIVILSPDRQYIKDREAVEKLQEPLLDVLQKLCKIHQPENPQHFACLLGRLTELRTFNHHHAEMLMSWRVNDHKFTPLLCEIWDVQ

HepG2 cells [4] = experiment: HepG2 necrosis (LDH release); type: cell-based; settings: Homo sapiens, HepG2, 4 h, read-out: NECROSIS LDH release EC50
HepG2 cells [5] = experiment: HepG2 apoptosis (caspase-3 activation); type: cell-based; settings: Homo sapiens, HepG2, 4 h, read-out: APOPTOSIS Caspase-3 activation EC50
HepG2 cells [6] = experiment: HepG2 cytotoxicity (ATP decrease, ATP-Lite); settings: read-out: CYTOTOXICITY ATP decrease EC50, 4 h
[7] = previous study, cited from earlier work
[8] = Critical micellar concentration by surface tension measurements; type: physicochemical; settings: […] NaCl water solution
Protocol: The critical micellar concentration (CMC) was determined by surface tension (ST) measurements using a maximum bubble-pressure method which give surface tension values slightly affected by potential impurities […] static methods. […] The surface tension values were plotted against the logarithm of the bile salt concentration; the regression lines corresponding to the two parts of the curve (monomeric and micellar phases) were calculated using the method of least squares, and the intersection of the lines was taken as the CMC value. From the ST vs concentration curves the value of the surface tension at the CMC (equilibrium between monomers and multimers species) was also calculated giving information about the detergency power which is related to the size of the micelles with associate surface tension lowering capacity. The CMC was evaluated by surface tension measurements in non equilibrium conditions i.e. in conditions that impurities slightly affect the surface tension results (FIG. 6). […] The presence of a hydroxyl group in the C-16 beta position reduces the hydrophobic area responsible for back to back interaction, which is to form micelles and therefore, the micelles are small and poorly detergent. This property confers to the molecule a low toxicity when accumulated in a given biological fluid or organ.

[9] = Bile fistula rat, femoral (iv) infusion: bile flow, biliary secretion, metabolism; settings: iv infusion, bile fistula rat
intestinal bacteria = experiment: In vitro metabolic stability in human stools culture; type: in vitro ADME
Protocol: Homogenized fresh human stools (500 mg) were transferred into sterile vials to which 5 mL of sterilized chopped meat-glucose medium (Scott Lab., Fiskville, R.I.) was added. BAs were then added at a final concentration of 0.05 mM. Vials were incubated at 37° C.; then, at 0, 1, 2, 4, 8 and 24 h after the addition of the BA, the reaction was stopped with 150 μL of 30% KOH. The samples were centrifuged at 3500 rpm for 10 min; from the supernatant the BA were isolated by C-18 solid-phase extraction and analyzed by TLC and HPLC-ES-MS/MS.
Thin-layer chromatography (TLC), utilizing silica gel 0.25 mm thickness plates (Merck, Darmstat, Germany), was employed as the first screening test. The solvent system used for the separation of conjugated BA was composed of propionic acid/isoamyl acetate/water/N-propanol (3:4:1:2, v/v/v/v; solvent I), and that of the unconjugated BA was acetic acid/carbon tetrachloride/isopropyl ether/isoamyl acetate/water/N-propanol/benzene (1:4:6:8:2:2, v/v/v/v/v/v; solvent II).

bovine serum albumin [10] = target: T1, bovine serum albumin; experiment: Albumin binding by equilibrium dialysis; type: in vitro ADME; design: 5% bovine serum albumin-saline solution (pH 7.2); from tissue; host or cells: bovine serum (by the name of the product); settings: 100 μM BA in 5% bovine serum albumin-saline, pH 7.2
Protocol: The extent of albumin binding was evaluated by equilibrium dialysis at a fixed BA-albumin ratio. Each BA was dissolved at a concentration of 100 μM in 5% bovine serum albumin-saline solution (pH 7.2) and left to stand for 24 h at 25° C. Two milliliters of this solution was dialyzed in cellulose sacs having a molecular weight cut-off of 12,000-14,000 Dalton against 25 ml of saline solution. The system was equilibrated by gently shaking for 72 h at 25° C. BA concentrations of the dialyzed solution (corresponding to the free unbound fraction) and of the starting solution were determined with HPLC-ESI-MS/MS in the same conditions of the previous analysis.
The percentage of albumin binding was calculated from the initial BA concentration and from the unbound concentration in the dialyzed fraction.

in vitro = settings: human
[11] = 1-Octanol/water partition coefficient (shake-flask); settings: bile acids as ionized species, pH 8
CAR = target: T3, CAR (Homo sapiens, UniProt Q14994); experiment: CAR coactivator recruitment (Lanthascreen); type: biochemical; settings: Table 6; *: data representing inverse agonism; read-out: CAR Activation EC50
T3 construct: purchased Invitrogen
T3 sequence (Q14994 109-352 limits assumed): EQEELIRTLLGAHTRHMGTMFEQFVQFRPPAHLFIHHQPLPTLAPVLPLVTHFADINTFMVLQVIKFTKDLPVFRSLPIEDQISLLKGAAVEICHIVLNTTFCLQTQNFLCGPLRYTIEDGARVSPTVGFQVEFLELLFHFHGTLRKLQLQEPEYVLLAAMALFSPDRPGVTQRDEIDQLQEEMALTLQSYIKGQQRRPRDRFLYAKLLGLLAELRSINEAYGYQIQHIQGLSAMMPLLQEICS

PPARδ = target: T4, PPARδ (Homo sapiens, UniProt Q03181); experiment: PPARδ activation, NR selectivity assay; settings: Table 6
T4 sequence (Q03181 211-439 limits assumed): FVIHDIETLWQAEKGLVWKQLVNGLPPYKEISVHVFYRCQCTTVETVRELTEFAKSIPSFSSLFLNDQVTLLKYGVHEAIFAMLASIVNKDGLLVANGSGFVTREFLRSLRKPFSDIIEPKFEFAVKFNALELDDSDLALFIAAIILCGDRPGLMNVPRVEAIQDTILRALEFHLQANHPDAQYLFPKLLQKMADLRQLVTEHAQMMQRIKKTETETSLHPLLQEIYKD

HepG2 cells [12] = tested on: HepG2 cells
LXRα = target: T5, LXRα (Homo sapiens, UniProt Q13133); experiment: LXR coactivator recruitment (Alphascreen); type: biochemical; settings: Table 6
T5 sequence (Q13133 1-447): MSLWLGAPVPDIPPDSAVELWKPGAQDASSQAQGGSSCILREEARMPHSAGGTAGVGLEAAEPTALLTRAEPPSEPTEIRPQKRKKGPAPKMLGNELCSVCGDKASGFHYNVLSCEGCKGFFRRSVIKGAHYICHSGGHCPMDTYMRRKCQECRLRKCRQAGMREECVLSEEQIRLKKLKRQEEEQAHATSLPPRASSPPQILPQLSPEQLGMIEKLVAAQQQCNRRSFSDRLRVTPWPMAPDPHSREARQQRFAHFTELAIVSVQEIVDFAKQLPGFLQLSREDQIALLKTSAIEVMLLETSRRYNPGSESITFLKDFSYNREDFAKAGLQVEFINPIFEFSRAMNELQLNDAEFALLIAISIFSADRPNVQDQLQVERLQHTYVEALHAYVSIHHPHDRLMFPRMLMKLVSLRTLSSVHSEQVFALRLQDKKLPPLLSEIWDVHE

[13] = pH 8
VDR = target: T6, VDR (Homo sapiens, UniProt P11473); experiment: VDR activation, NR selectivity assay; type: biochemical; settings: Table 6
T6 construct: purchased Invitrogen
T6 sequence (P11473 127-423 limits assumed): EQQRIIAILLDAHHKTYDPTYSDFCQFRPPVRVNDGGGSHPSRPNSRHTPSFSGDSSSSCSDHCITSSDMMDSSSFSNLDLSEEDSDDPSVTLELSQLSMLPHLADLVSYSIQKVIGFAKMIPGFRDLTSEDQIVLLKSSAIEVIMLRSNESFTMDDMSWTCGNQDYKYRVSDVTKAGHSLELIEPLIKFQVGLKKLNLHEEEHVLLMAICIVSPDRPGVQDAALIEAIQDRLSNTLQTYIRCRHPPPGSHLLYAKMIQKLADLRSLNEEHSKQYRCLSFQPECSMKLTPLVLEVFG

T1 sequence (P02769 25-607): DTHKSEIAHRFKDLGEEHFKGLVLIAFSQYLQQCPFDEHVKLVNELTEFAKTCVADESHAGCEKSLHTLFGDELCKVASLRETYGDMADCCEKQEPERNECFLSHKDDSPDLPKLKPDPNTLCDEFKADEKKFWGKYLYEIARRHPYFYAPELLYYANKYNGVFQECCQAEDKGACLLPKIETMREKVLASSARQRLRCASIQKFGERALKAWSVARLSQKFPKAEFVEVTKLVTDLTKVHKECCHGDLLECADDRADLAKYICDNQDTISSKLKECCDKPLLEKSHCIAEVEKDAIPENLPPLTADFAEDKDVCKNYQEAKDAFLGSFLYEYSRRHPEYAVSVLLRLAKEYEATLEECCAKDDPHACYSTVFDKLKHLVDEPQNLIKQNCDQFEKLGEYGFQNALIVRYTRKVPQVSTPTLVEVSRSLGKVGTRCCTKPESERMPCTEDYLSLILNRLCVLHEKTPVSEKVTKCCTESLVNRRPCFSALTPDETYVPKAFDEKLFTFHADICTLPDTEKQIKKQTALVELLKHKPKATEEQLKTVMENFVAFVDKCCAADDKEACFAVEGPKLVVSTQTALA

Ws: water solubility [3]: hs
Structure (SMILES): C[C@H](CCC(=O)NCCS(=O)(=O)O)[C@H]1CC[C@H]2[C@@H]3[C@H](O)C[C@@H]4C[C@H](O)CC[C@]4(C)[C@H]3CC[C@]12C [TCDCA]
CMC […] Na+ [1]: 3.0* mM | Albumin Binding (bovine serum albumin [2]): 70* %

FXR Activation EC50 (hFXR): No activity
Structure (SMILES): C[C@H](CCC(=O)O)[C@H]1CC[C@H]2[C@@H]3[C@H](O)C[C@@H]4C[C@H](O)CC[C@]4(C)[C@H]3C[C@H](O)[C@]12C [CA, cholic acid, reference compound]

Structure (SMILES): C[C@H](CCC(=O)O)[C@H]1CC[C@H]2[C@@H]3CC[C@@H]4C[C@H](O)CC[C@]4(C)[C@H]3CC[C@]12C [LCA, lithocholic acid]
EC50 (HepG2 cells [4]): 105 µM | EC50 (HepG2 cells [5]): 65 µM

Structure (SMILES): CN[C@@H]1C[C@H]2O[C@@](C)([C@@H]1OC)n1c3ccccc3c3c4c(c5c6ccccc6n2c5c31)C(=O)NC4 [Staurosporine]
EC50 (HepG2 cells [6]): 15 µM

Ws: water solubility [3]: hs
Structure (SMILES): C[C@H](CCC(=O)NCCS(=O)(=O)O)[C@H]1CC[C@H]2[C@@H]3[C@@H](O)C[C@@H]4C[C@H](O)CC[C@]4(C)[C@H]3CC[C@]12C [TUDCA]
CMC […] Na+ [1]: 2.2* mM | Albumin Binding (bovine serum albumin [2]): 67* %

Structure (SMILES): CC1(C)CC[C@]2(C(=O)O)CC[C@]3(C)C(=CC[C@@H]4[C@@]5(C)CC[C@H](O)C(C)(C)[C@@H]5CC[C@]43C)[C@@H]2C1 [OA, oleanolic acid]
Toxicity in animals ([7]; 100 mg/kg/day): some signs of toxicity | Tolerability in animals ([7]; lower dose than 100 mg/kg/day): well tolerated

Structure (SMILES): C[C@H](CCC(=O)O)[C@H]1CC[C@H]2[C@@H]3[C@H](O)C[C@@H]4C[C@H](O)CC[C@]4(C)[C@H]3CC[C@]12C [CDCA, chenodeoxycholic acid, reference compound]
CMC […] Na+ [8]: 3.2 mM | STCMC: Surface Tension at CMC [8]: 45.5 Dyne/cm | EC50 (HepG2 cells [4]): > 1000 µM | EC50 (HepG2 cells [5]): 890 µM | Bile flow with respect to control [9]: No significant differences | Maximum bile flow rate ([9]; control 70): 4.8 mL/h/kg | Metabolism in human stool cultures (intestinal bacteria): almost completely metabolized | Half-life time in human stool cultures (intestinal bacteria; 7α-dehydroxylation, 0.05 mM, 37° C.): almost one hour | Albumin Binding (bovine serum albumin [10]): 93% | EC50 at 4 h (in vitro): 650 µM | LogPA-: 1-octanol-water partition coefficient [11]: 2.2

Structure (SMILES): C[C@H](CCC(=O)O)[C@H]1CC[C@H]2[C@@H]3[C@@H](O)C[C@@H]4C[C@H](O)CC[C@]4(C)[C@H]3CC[C@]12C [UDCA]
CMC […] Na+ [8]: 6.0 mM | STCMC: Surface Tension at CMC [8]: 50.5 Dyne/cm | EC50 (CAR): > 250 µM | PPARδ Activation EC50 (PPARδ): No activity | Albumin Binding (bovine serum albumin [10]): 94% | EC50 (HepG2 cells [12]): > 1000 µM | Ws: water solubility [3]: 7.5 µM | LXRα Activation EC50 (LXRα): No activity | LogPA-: 1-octanol-water partition coefficient [13]: 2.2 | VDR Activation EC50 (VDR): No activity

Structure (SMILES): C[C@H](CCC(=O)O)[C@H]1CCC2C3C(CC[C@@]21C)[C@@]1(C)CC[C@@H](O)CC1[C@@H](C)[C@@H]3O (some centres unmarked) [Compound 6MUDCA]
CMC […] Na+ [1]: 4.2* mM | Albumin Binding (bovine serum albumin [2]): 80* %

Source: US8999964B2, “TGR5 modulators and methods of use thereof” (Intercept Pharmaceuticals, Inc., priority 2008, dated 2015)
